Assay results: article PMC8394219, “In Vitro Nephrotoxicity Studies of Established and Experimental Platinum-Based Compounds” (Biomedicines, 2021)

Key:
[1] = Anti-oxidant capacity: fluorescein consumption induced by AAPH-derived peroxyl radicals; settings: for effect on consumption of fluorescein: fluorescein 10 µM, AAPH 50 mM, phosphate buffer pH 7.4, 37 °C, cisplatin 10 µM, PN149 10, 25, 50 µM
Method: The influence of PN149 on the rates of the reaction of fluorescein with free radicals generated by the azo initiator 2,2′-azobis(2-amidinopropane) dihydrochloride (AAPH) was studied according to [35] in phosphate buffer (PB, 50 mM, pH 7.4) by measuring the decay of the probe at 494 nm with absorption spectrophotometer Specord UV–Vis equipped with a thermostated cell maintained at 37 °C. […] The lag phase of the reaction means no changes in the optical density of the reaction mixture. AAPH and fluorescein were purchased from Sigma-Aldrich, JM216 [e-ammine-d-(cyclohexylamine)-a,f-bis(acetato)-b,c-dichloroplatinum(IV)] was obtained as described in [36].

MATE1 = settings: cited from earlier work
ciPTEC [2] = assay: Cytotoxicity by relative cell count (RCC); format: cell-based, human; settings: 24 h incubation; for IC50: cell count after 48 h post-cultivation; for cell number compared to the control: 48 h post-cultivation
Method: The renal cell line ciPTEC (conditionally immortalized proximal tubule epithelial cells), which was purchased from Dr. Martijn Wilmer, was used in the current study. ciPTECs were cultured in DMEM-HAM’s F12 phenol red-free medium (Gibco, Thermo Fisher Scientific, Dreieich, Germany) supplemented with 10% fetal calf serum (FCS) (Invitrogen, Darmstadt, Germany), 5 µg/mL insulin, 5 µg/mL transferrin, 5 ng/mL selenium, 36 ng/mL hydrocortisone, 10 ng/mL EGF (epidermal growth factor) and 40 pg/mL tri-iodothyronine (Sigma-Aldrich, Steinheim, Germany). For maintaining the proliferation status, cells were cultured at 33 °C in a humidified atmosphere of 5% CO2 in medium supplemented with 1% penicillin/streptomycin (P/S) (Sigma-Aldrich, Steinheim, Germany). […] For comparative analysis with the data obtained with the permanent cell line ciPTEC, studies were performed with primary patient-derived renal normal tissue cells (NT), which were obtained from patients at the University Medical Center Mainz. Cells were isolated from primary renal cancer samples of patients who underwent nephrectomy at the Department of Urology, University Medical Center Mainz. The study was performed in agreement with the Declaration of Helsinki and approved by local ethics committee (No. 837.005.09, Landesärztekammer Rheinland-Pfalz, Mainz, Germany). Each patient provided informed consent. NT cells were cultivated in RPMI-1640 medium (Sigma-Aldrich, Steinheim, Germany) containing 10% FCS and 5% P/S at 37 °C in a humidified atmosphere of 5% CO2.
Toxicity was determined by relative cell count (RCC). ciPTECs were seeded in duplicates in T25 flasks and cultivated as stated before. […] Cell count was then determined using a CASY® cell counter (CASY® TTC Cell Counter & Analyzer System). The cell counts of the treated samples were normalized to the untreated control to obtain the RCC expressed as percentage. RCC was determined in three independent experiments.

ciPTEC [3] = assay: Intracellular platinum accumulation by AAS in ciPTECs; format: in vitro ADME, human; settings: 2 h
Method: The renal cell line ciPTEC (conditionally immortalized proximal tubule epithelial cells), which was purchased from Dr. Martijn Wilmer, was used in the current study. ciPTECs were cultured in DMEM-HAM’s F12 phenol red-free medium (Gibco, Thermo Fisher Scientific, Dreieich, Germany) supplemented with 10% fetal calf serum (FCS) (Invitrogen, Darmstadt, Germany), 5 µg/mL insulin, 5 µg/mL transferrin, 5 ng/mL selenium, 36 ng/mL hydrocortisone, 10 ng/mL EGF (epidermal growth factor) and 40 pg/mL tri-iodothyronine (Sigma-Aldrich, Steinheim, Germany). For maintaining the proliferation status, cells were cultured at 33 °C in a humidified atmosphere of 5% CO2 in medium supplemented with 1% penicillin/streptomycin (P/S) (Sigma-Aldrich, Steinheim, Germany). […]
Atomic absorption spectroscopy (AAS) was used to determine the intracellular accumulation after treatment with the platinum compounds. ciPTECs were seeded in T75 flasks and cultivated as stated before. […] Cells were then harvested via centrifugation and total cell count was determined. […] The residue was dissolved in 0.2% HNO3 and platinum amount was analyzed at a wavelength of […] in a graphite furnace using a PinAAcle 900 T (Perkin Elmer, Waltham, MA, USA). […] Intracellular accumulation was determined in three independent experiments and was calculated as ng Pt/10^6 cells.

ciPTEC [4] = assay: Gene expression profiling by high-throughput RT-qPCR in ciPTECs; format: cell-based, human; settings: 24 h; for expression of genes related to transcription factors (general): PN149 20 µM, cisplatin 50 µM, oxaliplatin 150 µM; for HMOX1 gene expression: ROS-inducible gene; for IL-8 gene expression: marker for inflammation; for PMAIP1 gene expression: pro-apoptotic gene
Method: Gene expression profiles were generated using a high-throughput RT-qPCR method previously established in the institute. ciPTECs were cultivated in T25 flasks as stated before. […] RNA isolation and generation of gene expression profiles using a Fluidigm dynamic array on a BioMark™ (Rheinau, Germany) system were performed as previously described. For comparative analysis of ciPTEC with primary kidney cells, 5 × 10^5 NT cells were seeded in 10 cm dishes and cultivated for 24 h. […] Gene expression profiles in ciPTEC were generated in three independent experiments. Due to the limited amount of tissue material, gene expression analysis in primary kidney cells was performed in two independent experiments.

MATE2-K = settings: cited from earlier work
[5] = test system: primary patient-derived renal normal tissue cells (NT); assay: Gene expression profiling by high-throughput RT-qPCR in primary renal normal tissue cells; format: cell-based, human; settings: normal tissue (primary kidney cells), 20 µM cisplatin, 24 h
Method: The renal cell line […] (conditionally immortalized proximal tubule epithelial cells), which was purchased from Dr. Martijn Wilmer, was used in the current study. […] For maintaining the proliferation status, cells were cultured at 33 °C in a humidified atmosphere of 5% CO2 in medium supplemented with 1% penicillin/streptomycin (P/S) (Sigma-Aldrich, Steinheim, Germany). For the experiments, […] were seeded at a density of 55,000 cells/cm^2 in cell culture flasks and were cultivated for 24 h at 33 °C. After 24 h, cells were transferred to 37 °C for maturation, while the medium was refreshed with medium containing no P/S. Cells were kept at 37 °C for 7 days while the medium was replaced every 2-3 days. For comparative analysis with the data obtained with the permanent cell line […], studies were performed with primary patient-derived renal normal tissue cells (NT), which were obtained from patients at the University Medical Center Mainz. Cells were isolated from primary renal cancer samples of patients who underwent nephrectomy at the Department of Urology, University Medical Center Mainz. The study was performed in agreement with the Declaration of Helsinki and approved by local ethics committee (No. 837.005.09, […]-Pfalz, Mainz, Germany). Each patient provided informed consent. […]

[6] = test system: testicular germ cell tumors; parameters: method as in PMID 12835671; settings: combination therapy against testicular germ cell tumors ref 2; cited from earlier work
ciPTECs = test system: ciPTECs; parameters: method as in PMID 26821801; settings: ciPTECs treated with cisplatin for 24 h, MTT assay ref 45; read-out: TC50 (≡ IC50); cited from earlier work
[7] = test system: organic cation transporter 2 (OCT2); parameters: method as in PMID 17582384, PMID 21144842; settings: cited from earlier work

| Compound | kinetics of fluorescein consumption ([1]; JM216 10 M as printed, data not shown) | affinity for MATE1 (MATE1) | IC50 (ciPTEC [2]) | ng Pt/10^6 Cells (platinum accumulation) (ciPTEC [3]; 50 µM) | NFKB2 gene expression (ciPTEC [4]) | expression of genes related to transcription factors (general) (ciPTEC [4]) | HMOX1 gene expression (ciPTEC [4]) | IL-8 gene expression (ciPTEC [4]) | PMAIP1 gene expression (ciPTEC [4]) | cell number compared to the control (ciPTEC [2]; concentration not stated (Figure 2A)) | effect on consumption of fluorescein [1] | HSPA1A gene expression (ciPTEC [4]; heat-shock sensitive gene) | cell number compared to the control (ciPTEC [2]; 50 µM) | expression of DNA repair-related genes (ciPTEC [4]; 20 µM cisplatin) | affinity for MATE2-K (MATE2-K) | expression of DNA repair-related genes [5] | cure rates [6] | IC50 (ciPTECs) | ng Pt/10^6 Cells (platinum accumulation) (ciPTEC [3]; 300 µM carboplatin) | uptake via / affinity to OCT2 [7] |
| --- | --- | --- | --- | --- | --- | --- | --- | --- | --- | --- | --- | --- | --- | --- | --- | --- | --- | --- | --- | --- |
| CC(=O)[O-].CC(=O)[O-].N.NC1CCCCC1.[Cl-].[Cl-].[Pt+4] [JM216, e-ammine-d-(cyclohexylamine)-a,f-bis(acetato)-b,c-dichloroplatinum(IV)] | practically coincided with curve 2 for cisplatin | – | – | – | – | – | – | – | – | – | – | – | – | – | – | – | – | – | – | – |
| O=C1[O][Pt]2([NH][C@@H]3CCCC[C@H]3[NH]2)[O]C1=O [Oxaliplatin] | – | substrate for both MATE1 and MATE2-K | 51 µM | 11 ± 2 ng Pt/10^6 cells | slightly enhanced | widespread gene repression was restricted to the highest concentration used | slightly lesser effects | increased transcript levels | strong concentration-dependent increase | – | – | – | – | – | – | – | – | – | – | – |
| e-ammine-d-(3-amino-2,2,5,5-tetramethylpyrrolidine-1-oxyl)-a,f-bis(butanoato)-b,c-dichloro-platinum(IV) [PN149] | – | – | 6 µM | – | repressed transcript levels | widespread gene repression | strongly induced | repressed gene expression | peaked at 20 µM | less than 5% | effectively inhibited the consumption of fluorescein | strong concentration-dependent increase | – | – | – | – | – | – | – | – |
| N.N.[Cl][Pt][Cl] [Cisplatin] | – | only low affinity for MATE1 | 13 µM | – | slightly enhanced | strong down-regulation of gene transcripts | slightly lesser effects | increased transcript levels | strong concentration-dependent increase | – | only slightly slowed down the consumption of fluorescein | – | less than 10% | increased expression of several repair-related genes | no affinity for MATE2-K | reduced transcript levels | over 80% | 34 µM | – | – |
| N.N.O=C([O-])C1(C(=O)[O-])CCC1.[Pt+2] [Carboplatin] | – | – | 175 µM | – | repressed transcript levels | no general down-regulation | strongly induced | repressed gene expression | strong concentration-dependent increase | – | – | – | – | – | – | – | – | – | 18 ± 2 ng Pt/10^6 cells | no affinity to this transporter |
